Structures can show the parent of a compound that is named as a salt.
What was measured:
db/db-mice [1] = assay: HbA1c levels in db/db-mice after 4 weeks of once daily oral treatment (Micromat II Hemoglobin A1c Test); format: in vivo; details: female obese db/db-mice; Compound A 3 mg/kg orally, RIMONABANT Hydrochloride 10 mg/kg orally or combination of both, once daily for 4 weeks; vs vehicle; FIG. 1
Procedure: (§1) Aim of the study was to investigate the influence of a combination of RIMONABANT Hydrochloride and Compound A on HbA1c and glucose tolerance.
(§2) Female obese db/db-mice (BKS.Cg/BomTac-m+/+Lepr^db), supplied by Taconic Europe (Denmark) were used at the age of 10-11 weeks. Animals were kept under controlled conditions (22° C., 12 h light/12 h dark cycle) and received standard laboratory chow and water ad libitum. For each group a number of 15 animals were used.
(§3) Animals were treated with Compound A [3 mg/kg orally, suspended in methocel (hypromellose, 4% aequous solution)], RIMONABANT Hydrochloride [10 mg/kg orally, suspended in methocel (hypromellose, 4% aequous solution), Sequoia Research Products, Pangbourne, UK] or a combination of both once daily for 4 weeks. Vehicle treated animals served as control. HbA1c levels were analyzed using the Micromat II Hemoglobin A1c Test (Bio-Rad Laboratories GmbH, 80939 München, Germany). An intraperitoneal glucose tolerance test was performed in 24 h fasted animals. A glucose bolus (1 g/kg body weight) was administered intraperitoneally. Blood glucose was monitored for the following time points: t=−120 min, 0 min (before glucose administration), 30 min, 60 min, 90 min, 120 min (after glucose administration). Blood was taken by tail-tip-bleeding (5 μl) and was determined from hemolysate using an analyzing machine (Biosen S_line, EKF Diagnostic, Germany). […]

db/db-mice [2] = assay: Intraperitoneal glucose tolerance test in 24 h fasted db/db-mice after 4 weeks of treatment; format: in vivo; details: female obese db/db-mice, glucose bolus 1 g/kg i.p., Compound A 3 mg/kg orally, RIMONABANT Hydrochloride 10 mg/kg orally or combination of both, once daily for 4 weeks, FIG. 2
Procedure: as §1, §2, §3

| SMILES | effect on HbA1c (db/db-mice [1]) | effect on glucose tolerance (db/db-mice [2]) |
| --- | --- | --- |
| CCOc1cc2c(cc1OC)C(c1ccc(OC)nc1OC)=N[C@@H]1CC[C@@H](O)C[C@H]21 [Compound A, (2R,4aR,10bR)-6-(2,6-Dimethoxy-pyridin-3-yl)-9-ethoxy-8-methoxy-1,2,3,4,4a,10b-hexahydrophenanthridin-2-ol] | no effect | no effect |
| Cc1c(C(=O)NN2CCCCC2)nn(-c2ccc(Cl)cc2Cl)c1-c1ccc(Cl)cc1 [RIMONABANT Hydrochloride, 5-(4-chlorophenyl)-1-(2,4-dichlorophenyl)-4-methyl-N-piperidin-1-yl-1H-pyrazole-3-carboxamide] | no effect | no effect |

Reference: patent US20120129817A1, “COMBINATION TREATMENT FOR DIABETES MELLITUS” (NYCOMED GMBH, priority 2006, published 2012)
